# Measurements taken from patent publication USRE43000E1, “Artificial riboswitch for controlling pre-mRNA splicing” (City of Hope, priority 2005, dated 2011).
# Legend:
# Format in all cases: biochemical
# [1] = system: AdMLTheo54Mut, AdMLTheo57Mut, AdMLTheo510Mut, AdMLTheo513Mut pre-mRNAs; test: In vitro splicing of AdML pre-mRNAs with 5′ ss embedded in the theophylline aptamer
# Source text: Similar experiments were run using pre-mRNA substrates wherein the 5′ ss rather than the 3′ ss was embedded within the theophylline binding aptamer. Plasmids encoding […] 5′ ss embedded AdML pre-mRNA derivatives (AdMLTheo54Mut, AdMLTheo57Mut, AdMLTheo510Mut, and AdMLTheo513Mut) were constructed using a standard PCR based approach (FIG. 32A). The length of the lower aptamer stem in these substrates varied from 4 to 13 nucleotides. To prevent the activation of a cryptic 5′ ss, the GU's (potential 5′ ss) upstream of the authentic 5′ ss were mutated to GC. […] The proximal to distal product ratio decreased in the presence of theophylline in the 10- and 13-nucleotide lower aptamer substrates (FIGS. 34A and B). Theophylline induced alternative splicing in a dose-dependent manner (FIGS. 35A and B).
# (§1) Nuclear extracts were prepared from HeLa cells (obtained from National Cell Culture), essentially as described by Dignam et al., (Dignam et al., 1983). […] Splicing intermediates and products were analyzed by electrophoresis in 13% denaturing polyacrylamide gels. The fractionated RNAs were visualized by PhosphorImager (Molecular Dynamics) and RNA signals were quantified by ImageQuant version 4.2 software (Molecular Dynamics) or ImageJ version 1.36 software (Rasband, W. S., ImageJ, U.S. National Institutes of Health, Bethesda, Md., http://rsb.info.nih.gov/ij, 1997-2006).
# MINX-Theo28AG pre-mRNA = test: In vitro splicing of MINX-Theo28AG pre-mRNA
# Source text: To determine whether the aforementioned reasons could be the cause of step II splicing inhibition, an AdML derivative with BPS-to-AG distance of 29 nucleotides and the sequence between the poly(Y) tract and AG bearing the substitutions of cytidine for guanosine was synthesized (FIG. 3A; AdML-Theo-29AG). […] To rule out the possibility that the observed results are substrate specific, a derivative of MINX pre-mRNA (Zillmann et al., 1988) (MINX-Theo28AG) carrying the high affinity theophylline binding aptamer between the poly (Y) tract and 3′ splice site AG was synthesized. […] Accordingly, the BPS-to-AG distance plays a role in theophylline-dependent modulation of RNA splicing.
# as §1
# [2] = system: BclxSHTheo510 and BclxSHTheo513 pre-mRNAs; test: In vitro alternative splicing of Bcl-x minigene derivatives; details: 10- and 13-nucleotide stem substrates
# Experimental: Nuclear extracts were prepared from HeLa cells (obtained from National Cell Culture), essentially as described by Dignam et al., (Dignam et al., 1983). To ensure that theophylline binds to its RNA target, a solution (5 μl) consisting of ^32P-labeled pre-mRNA (5-10 fmol, ˜10,000 cpm per reaction), indicated concentration of theophylline, 0.5 μl BC300 (20 mM HEPES, pH 8.0, 20% glycerol, 300 mM KCl, 0.2 mM EDTA) and 0.25 μl 160 mM MgCl2 were heated to 65° C. for 5 minutes, followed by 20 minutes incubation at room temperature. Next, 0.5 mM ATP, 20 mM creatine phosphate, 0.4 units of RNasin (Promega), 1.0 mM DTT, 6.25 μl HeLa nuclear extract, and water up to 12.5 μl (all concentrations are final) was added and incubation continued at 30° C. for the indicated time. Where indicated, theophylline was substituted by caffeine or water. Splicing reaction was terminated by the addition of 125 μl stop buffer (100 mM Tris-HCl, pH 7.5, 10 mM EDTA, 1% SDS, 150 mM NaCl, 300 mM sodium acetate) followed by phenol-chloroform extraction and isolation of the RNA by ethanol precipitation.
smiles,measurement,setting,value
Cn1c(=O)c2[nH]cnc2n(C)c1=O [theophylline],proximal to distal product ratio,[1]; 10- and 13-nucleotide lower aptamer substrates,decreased
same,effect on splicing of 5′ ss embedded substrates,[1]; lower aptamer stem 4 to 13 nucleotides,inhibit splicing
same,effect on step II of MINX-Theo28AG splicing,MINX-Theo28AG pre-mRNA,efficiently inhibit the step II of the splicing
same,distal to proximal product ratio of Bcl-x minigene derivatives,[2],increased
